Measurements from the CheMixHub viscosity set.
“And” between values parts separate entries of the source, which are not always exact repeats. Equal entries are not always repeated. ± gives the uncertainty stated by the source.

C/C=C/C(=O)OCC
101 kPa
Details	viscosity [mPa·s]
293.15 K	0.8184 ± 0.0091
298.15 K	0.7576 ± 0.0085
303.15 K	0.7053 ± 0.0079
313.15 K	0.6154 ± 0.007
323.15 K	0.5471 ± 0.0063

C=CC(=O)OC(C)(C)C
viscosity [mPa·s]
Details	293.15 K	298.15 K	303.15 K	308.15 K	313.15 K	318.15 K
100 kPa	0.9072 ± 0.012	0.8309 ± 0.011	0.76 ± 0.011	0.701 ± 0.011	0.6485 ± 0.011	0.6034 ± 0.011
101 kPa	0.9072 ± 0.037	0.8309 ± 0.034	0.76 ± 0.031	0.701 ± 0.029	0.6485 ± 0.026	0.6034 ± 0.025

CC(=O)[O-].CCCC[N+](CC)(CC)CC
101 kPa
Details	viscosity [mPa·s]
298.2 K	439 ± 23
313.2 K	306.7 ± 14

CC(C)OCCO
101.33 kPa
Details	viscosity [mPa·s]
298.15 K	2.106 ± 0.026
308.15 K	1.649 ± 0.021
318.15 K	1.315 ± 0.017

CC(C)c1cc(C(C)C)cc(C(C)C)c1
102 kPa
Details	viscosity [mPa·s]
293.15 K	4.12 ± 0.07
303.15 K	3.05 ± 0.06
313.15 K	2.35 ± 0.05
323.15 K	1.86 ± 0.04

CCCCCCBr
101 kPa
Details	viscosity [mPa·s]
298.15 K	0.9475 ± 0.02
303.45 K	0.885 ± 0.019
313.35 K	0.782 ± 0.017

CCCCCCCC(=O)OCC(COC(=O)CCCCCCC)OC(=O)CCCCCCC
101.33 kPa
Details	viscosity [mPa·s]
298 K	19.98 ± 0.37
303 K	16.58 ± 0.31
308 K	13.79 ± 0.25
313 K	11.57 ± 0.21

CCCCCCCCCCCC[P+](CCCC)(CCCC)CCCC.N#Cc1ccc[n-]1
100 kPa
Details	viscosity [mPa·s]
293.15 K	567 ± 84
298.15 K	389 ± 57
303.15 K	297 ± 43
313.15 K	166 ± 24

CCCCCCCCN(CCCCCCCC)CCCCCCCC
Details	viscosity
298.15 K, 101.33 kPa	8.325 ± 0.24 mPa·s and 8.325 ± 0.23 mPa·s
303.15 K, 101 kPa	6.95 ± 0.14 mPa·s

CCCCCC[N+]1(C)CCCC1.O=S(=O)([N-]S(=O)(=O)C(F)(F)F)C(F)(F)F
Details	viscosity [mPa·s]
293.15 K, 100 kPa	136.2 ± 3.8
295.2 K, 101.3 kPa	119.8 ± 17
298.15 K, 100 kPa	102.8 ± 2.5
300.2 K, 101.3 kPa	96.8 ± 11
303.15 K, 100 kPa	79.59 ± 1.8
305.2 K, 101.3 kPa	79.6 ± 6.4
308.15 K, 100 kPa	63.07 ± 1.3
310.2 K, 101.3 kPa	64.8 ± 3.3
313.15 K, 100 kPa	51.01 ± 1.1
313.15 K, 101 kPa	52.7 ± 5.4
315.2 K, 101.3 kPa	54.2 ± 1.9
320.2 K, 101.3 kPa	45.9 ± 2.2

CCCCNCCO
101.33 kPa
Details	viscosity [mPa·s]
293.15 K	19.67 ± 0.42
298.15 K	15.39 ± 0.33
303.15 K	12.23 ± 0.26
308.15 K	9.869 ± 0.21
313.15 K	8.07 ± 0.17
318.15 K	6.68 ± 0.14
323.15 K	5.591 ± 0.12

CCCCOCCO
Details	viscosity
293.15 K, 101.3 kPa	3.248 ± 0.16 mPa·s
293.15 K, 101.33 kPa	3.26 ± 0.069 mPa·s
295.15 K, 101 kPa	3.015 ± 0.027 mPa·s
297.15 K, 101 kPa	2.857 ± 0.026 mPa·s
298 K, 101.3 kPa	2.786 ± 0.073 mPa·s
298.15 K, 100 kPa	2.855 ± 0.1 mPa·s
298.15 K, 101.3 kPa	2.834 ± 0.14 mPa·s
298.15 K, 101.33 kPa	2.844 ± 0.06 mPa·s
298.45 K, 101 kPa	2.825 ± 0.026 mPa·s
299.15 K, 101 kPa	2.709 ± 0.024 mPa·s
301.15 K, 101 kPa	2.576 ± 0.023 mPa·s
303 K, 101.3 kPa	2.403 ± 0.064 mPa·s
303.15 K, 101.33 kPa	2.408 ± 0.061 mPa·s
305.15 K, 101 kPa	2.327 ± 0.021 mPa·s
307.15 K, 101 kPa	2.217 ± 0.019 mPa·s
308 K, 101.3 kPa	2.115 ± 0.056 mPa·s
308.15 K, 100 kPa	2.274 ± 0.1 mPa·s
308.15 K, 101.3 kPa	2.228 ± 0.014 mPa·s and 2.204 ± 0.11 mPa·s
308.15 K, 101.33 kPa	2.193 ± 0.1 mPa·s
309.15 K, 101 kPa	2.118 ± 0.019 mPa·s
311.15 K, 101 kPa	2.017 ± 0.018 mPa·s
313 K, 101.3 kPa	1.867 ± 0.05 mPa·s
313.15 K, 101.3 kPa	1.964 ± 0.099 mPa·s
313.15 K, 101.33 kPa	1.97 ± 0.052 mPa·s and 1.869 ± 0.048 mPa·s
315.15 K, 101 kPa	1.844 ± 0.016 mPa·s
317.15 K, 101 kPa	1.764 ± 0.015 mPa·s
318 K, 101.3 kPa	1.657 ± 0.044 mPa·s
318.15 K, 101 kPa	1.937 ± 0.19 mPa·s and 1.938 ± 0.045 mPa·s and 1.928 ± 0.078 mPa·s
318.15 K, 101.3 kPa	1.759 ± 0.089 mPa·s
318.15 K, 101.33 kPa	1.764 ± 0.052 mPa·s
319.15 K, 101 kPa	1.688 ± 0.015 mPa·s
321.15 K, 101 kPa	1.618 ± 0.014 mPa·s
323.15 K, 101 kPa	1.552 ± 0.013 mPa·s
323.15 K, 101.3 kPa	1.584 ± 0.08 mPa·s
323.15 K, 101.33 kPa	1.588 ± 0.051 mPa·s

CCCC[n+]1ccn(C)c1.N#C[C-](C#N)C#N
100 kPa
Details	viscosity [mPa·s]
293.15 K	34.9 ± 1.8
298.15 K	27.97 ± 1.4
303.15 K	22.85 ± 1.2
308.15 K	18.98 ± 0.97
313.15 K	15.99 ± 0.82
318.15 K	13.66 ± 0.7
323.15 K	11.8 ± 0.6

CCCC[n+]1ccn(C)c1.O=[N+]([O-])[O-]
101 kPa
Details	viscosity [mPa·s]
293.15 K	212.1
298.15 K	158.8 ± 77
303.15 K	121.2 ± 45
308.15 K	94.07 ± 25
313.15 K	74.19 ± 12
318.15 K	59.38 ± 4.4
323.15 K	48.18 ± 4.7

CCCC[n+]1ccn(C)c1C.F[B-](F)(F)F
Details	viscosity [mPa·s]
298.15 K, 101 kPa	573 ± 51

CCNCCO
viscosity [mPa·s]
Details	293.15 K	298.15 K	303.15 K	308.15 K	313.15 K	318.15 K	323.15 K
101 kPa	–	–	9.639 ± 0.16	7.83 ± 0.13	6.419 ± 0.11	5.358 ± 0.087	4.517 ± 0.074
101.33 kPa	16.27 ± 0.35	12.75 ± 0.27	10.16 ± 0.22	8.223 ± 0.17	6.748 ± 0.14	5.608 ± 0.12	4.714 ± 0.1

CCOC(=O)CCl
viscosity
Details	303.15 K	308.15 K
101.3 kPa	1.013 ± 0.013 mPa·s and 1.013 ± 0.009 mPa·s	0.93 ± 0.012 mPa·s and 0.93 ± 0.009 mPa·s
101.33 kPa	1.007 ± 0.02 mPa·s and 1.007 ± 0.025 mPa·s	0.933 ± 0.017 mPa·s and 0.933 ± 0.022 mPa·s

CCOCCOCCOCC
viscosity [mPa·s]
Details	298.15 K	308.15 K	318.15 K
101 kPa	1.268 ± 0.011	–	–
101.33 kPa	1.268 ± 0.016	1.048 ± 0.014	0.881 ± 0.012

CC[N+]1(C)CCCC1.COP(=O)([O-])OC
100 kPa
Details	viscosity [mPa·s]
293.15 K	227.7 ± 15
298.15 K	169.4 ± 11
303.15 K	123.5 ± 7.8
308.15 K	93.55 ± 5.8
313.15 K	72.82 ± 4.5
318.15 K	56.38 ± 3.4
323.15 K	45.1 ± 2.8

CNC=O
viscosity
Details	298.15 K	303 K	303.15 K	308.15 K	313.15 K	318.15 K	323.15 K
101 kPa	1.746 ± 0.028 mPa·s	1.475 ± 0.014 mPa·s	1.585 ± 0.074 mPa·s and 1.597 ± 0.015 mPa·s and 1.58 ± 0.025 mPa·s	1.462 ± 0.069 mPa·s and 1.473 ± 0.014 mPa·s and 1.434 ± 0.023 mPa·s	1.352 ± 0.065 mPa·s and 1.361 ± 0.013 mPa·s and 1.306 ± 0.021 mPa·s	1.255 ± 0.06 mPa·s and 1.263 ± 0.012 mPa·s and 1.191 ± 0.02 mPa·s	1.175 ± 0.011 mPa·s
101.3 kPa	1.695 ± 0.024 mPa·s	–	–	–	–	–	–
101.33 kPa	–	–	1.586 ± 0.015 mPa·s	1.463 ± 0.013 mPa·s	1.352 ± 0.013 mPa·s	1.256 ± 0.012 mPa·s	1.167 ± 0.011 mPa·s

COC(=O)c1ccccc1
viscosity
Details	293.15 K	298.15 K	303.15 K	308.15 K	313.15 K	318.15 K	323.15 K
100 kPa	–	–	–	1.517 ± 0.062 mPa·s	1.373 ± 0.056 mPa·s	–	–
101 kPa	–	1.823 ± 0.057 mPa·s and 1.825 ± 0.15 mPa·s	1.656 ± 0.14 mPa·s and 1.583 ± 0.018 mPa·s	1.501 ± 0.037 mPa·s and 1.504 ± 0.047 mPa·s	1.359 ± 0.014 mPa·s and 1.371 ± 0.034 mPa·s	1.282 ± 0.032 mPa·s and 1.27 ± 0.04 mPa·s	1.222 ± 0.03 mPa·s
101.3 kPa	–	1.918 ± 0.024 mPa·s	1.778 ± 0.022 mPa·s	1.663 ± 0.021 mPa·s	1.402 ± 0.018 mPa·s	–	–
101.33 kPa	1.879 ± 0.015 mPa·s and 2.036 ± 0.12 mPa·s	1.836 ± 0.11 mPa·s and 1.825 ± 0.023 mPa·s and 1.81 ± 0.022 mPa·s	1.523 ± 0.012 mPa·s and 1.656 ± 0.021 mPa·s and 1.638 ± 0.02 mPa·s	1.521 ± 0.092 mPa·s and 1.491 ± 0.018 mPa·s	1.238 ± 0.01 mPa·s and 1.398 ± 0.085 mPa·s and 1.365 ± 0.017 mPa·s	1.253 ± 0.016 mPa·s	1.016 ± 0.009 mPa·s

C[N+](C)(C)C.[OH-]
100 kPa
Details	viscosity [mPa·s]
298.15 K	2.77 ± 0.06
303.15 K	2.71 ± 0.06
308.15 K	2.62 ± 0.06
313.15 K	2.56 ± 0.05

C[N+](C)(C)CCO.O=C([O-])c1ccccn1
Details	viscosity [mPa·s]
300 K, 100 kPa	558.5 ± 54

C[N+]1(CC2CO2)CCCC1=O.[Cl-] (stereo not given)
101 kPa
Details	viscosity
293.15 K	1.677 ± 0.039 mPa·s and 1.623 ± 0.038 mPa·s
298.15 K	1.537 ± 0.036 mPa·s and 1.489 ± 0.035 mPa·s
303.15 K	1.415 ± 0.033 mPa·s and 1.373 ± 0.032 mPa·s
308.15 K	1.309 ± 0.031 mPa·s and 1.27 ± 0.03 mPa·s
313.15 K	1.215 ± 0.029 mPa·s and 1.18 ± 0.028 mPa·s

O=C(OCc1ccccc1)c1ccccc1
Details	viscosity
298.15 K, 101 kPa	8.454 ± 0.23 mPa·s and 8.45 ± 0.23 mPa·s
313.15 K, 101.33 kPa	5.04 ± 0.05 mPa·s

[Cl-].[Cl-].[Cl-].[Cl-].[Ti+4]
101 kPa
Details	viscosity [mPa·s]
293.15 K	0.827 ± 0.014
313.15 K	0.702 ± 0.012

c1ccc2c(c1)CCCC2
viscosity
Details	293.15 K	298.15 K	303.15 K	308.15 K	313.15 K	318.15 K	323.15 K
100 kPa	2.195 ± 0.047 mPa·s and 2.2 ± 0.09 mPa·s	1.985 ± 0.042 mPa·s and 1.99 ± 0.08 mPa·s	1.807 ± 0.038 mPa·s and 1.81 ± 0.07 mPa·s	1.654 ± 0.035 mPa·s and 1.66 ± 0.07 mPa·s	1.521 ± 0.032 mPa·s and 1.52 ± 0.06 mPa·s	1.403 ± 0.03 mPa·s and 1.4 ± 0.06 mPa·s	1.301 ± 0.028 mPa·s and 1.3 ± 0.05 mPa·s
101 kPa	–	1.985 ± 0.026 mPa·s	–	–	–	–	–
101.33 kPa	–	1.968 ± 0.012 mPa·s	1.778 ± 0.011 mPa·s	1.612 ± 0.01 mPa·s	1.473 ± 0.009 mPa·s	–	–
102 kPa	2.25 ± 0.03 mPa·s	–	1.85 ± 0.02 mPa·s	–	–	–	–
